The record followed here is patent publication US20140031278A1, “Novel Glucagon Analogues” (NOVO NORDISK A/S, priority 2011, published 2014).

By EC50 is commonly meant the concentration at which the effect is half-maximal. Low readings indicate an effect from little substance, high ones a need for much substance.

This experiment has as its target T1, glucagon receptor (Homo sapiens, UniProt P47871).
T1 construct: expressed in transfected cells
Briefly: Assay (I) Glucagon activity (cAMP biosensor, FLIPR). Type of experiment: cell-based. Particulars: HEK-293 cells with cloned glucagon receptor and cAMP biosensor; end point after 6 minutes. The method in brief: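 HEK-293 cells expressing glucagon receptor with membrane cAMP biosensor (ACTOne), calcium-dye loaded with probenecid and a PDE inhibitor.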

*1 amine or outer side, *2 acyl side, *3 side chain or, on linkers, in order; H or OH if unused. Where a SMILES comes first, the peptide text is derived from it. Side-chain parts run from the residue outwards. γGlu = O=C(O)[C@H](CCC(=O)[*:2])N[*:1]

T1 sequence (P47871 26-477): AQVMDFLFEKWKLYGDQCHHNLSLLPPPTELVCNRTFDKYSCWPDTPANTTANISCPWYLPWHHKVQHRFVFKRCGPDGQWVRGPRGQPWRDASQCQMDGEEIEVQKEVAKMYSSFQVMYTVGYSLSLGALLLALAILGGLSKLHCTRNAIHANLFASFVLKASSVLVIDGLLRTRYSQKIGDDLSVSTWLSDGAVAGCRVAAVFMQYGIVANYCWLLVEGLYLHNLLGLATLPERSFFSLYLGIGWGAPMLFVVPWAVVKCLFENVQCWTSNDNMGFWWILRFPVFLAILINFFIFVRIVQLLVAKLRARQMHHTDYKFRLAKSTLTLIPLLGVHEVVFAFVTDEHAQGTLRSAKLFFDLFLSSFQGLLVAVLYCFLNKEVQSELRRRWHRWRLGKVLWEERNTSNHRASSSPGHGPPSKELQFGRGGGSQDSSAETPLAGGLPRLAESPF

For `CC(=O)N[C@@H](CCC(=O)N[C@@H](CCC(=O)N[C@@H](CCC(=O)N[C@@H](CCC(=O)NCCCC[C@H](NC(=O)[C@@H](NC(=O)[C@H](CO)NC(=O)[C@H](CC(C)C)NC(=O)[C@H](CC(C)C)NC(=O)[C@H](Cc1c[nH]c2ccccc12)NC(=O)[C@H](CCC(N)=O)NC(=O)[C@@H](NC(=O)[C@H](Cc1ccccc1)NC(=O)[C@H](CC(=O)O)NC(=O)[C@H](CCC(N)=O)NC(=O)[C@H](C)NC(=O)[C@H](CCCNC(=N)N)NC(=O)[C@H](CCCNC(=N)N)NC(=O)[C@H](CO)NC(=O)[C@H](CC(=O)O)NC(=O)[C@H](CC(C)C)NC(=O)[C@H](Cc1ccc(O)cc1)NC(=O)[C@H](CCCCN)NC(=O)[C@H](CO)NC(=O)[C@H](Cc1ccc(O)cc1)NC(=O)[C@H](CC(=O)O)NC(=O)[C@H](CO)NC(=O)[C@@H](NC(=O)[C@H](Cc1ccccc1)NC(=O)[C@@H](NC(=O)CNC(=O)[C@H](CCC(N)=O)NC(=O)[C@H](CO)NC(=O)[C@@H](N)Cc1c[nH]cn1)[C@@H](C)O)[C@@H](C)O)C(C)C)[C@@H](C)O)C(=O)O)C(=O)O)C(=O)O)C(=O)O)C(=O)O` [Example 51, N^α([Leu^27,Ser^28]-Glucagonyl)-N^ε[(4S)-4-[[(4S)-4-[[(4S)-4-[[(4S)-4-acetamido-4-carboxybutanoyl]amino]-4-carboxybutanoyl]amino]-4-carboxybutanoyl]amino]-4-carboxybutanoyl]Lys], the EC50 worked out at 0.007 nM.
As to `CC(=O)N[C@@H](CCC(=O)N[C@@H](CCC(=O)N[C@@H](CCC(=O)N[C@@H](CCC(=O)NCCCC[C@H](NC(=O)[C@@H](NC(=O)[C@H](Cc1ccccc1)NC(=O)[C@H](CC(=O)O)NC(=O)[C@H](C)NC(=O)[C@H](C)NC(=O)[C@H](CCCNC(=N)N)NC(=O)[C@H](CCCNC(=N)N)NC(=O)[C@H](CC(C)C)NC(=O)[C@H](CC(=O)O)NC(=O)[C@H](CC(C)C)NC(=O)[C@H](Cc1ccc(O)cc1)NC(=O)[C@H](CCCCN)NC(=O)[C@H](CO)NC(=O)[C@@H](NC(=O)[C@H](CC(=O)O)NC(=O)[C@H](CO)NC(=O)[C@@H](NC(=O)[C@H](Cc1ccccc1)NC(=O)[C@@H](NC(=O)CNC(=O)[C@H](Cc1c[nH]cn1)NC(=O)[C@H](C)NC(=O)[C@@H](N)Cc1c[nH]cn1)[C@@H](C)O)[C@@H](C)O)C(C)C)C(C)C)C(=O)N[C@@H](Cc1c[nH]c2ccccc12)C(=O)N[C@@H](CC(C)C)C(=O)N[C@@H](CC(C)C)C(=O)N[C@@H](CO)C(=O)N[C@H](C(=O)O)[C@@H](C)O)C(=O)O)C(=O)O)C(=O)O)C(=O)O` [Example 62, N^ε24-[(4S)-4-[[(4S)-4-[[(4S)-4-[[(4S)-4-acetamido-4-carboxybutanoyl]amino]-4-carboxybutanoyl]amino]-4-carboxybutanoyl]amino]-4-carboxybutanoyl]-[Ala^2,His^3,Val^10,Leu^16,Ala^20,Lys^24,Leu^27,Ser^28]-Glucagon] (H-HAHGTFTSDVSKYLDLRRAADFVK([γGlu-γGlu-γGlu-γGlu-Ac])WLLST-OH), it took 0.052 nM to reach a half-maximal effect (EC50).
As for `CC(=O)N[C@@H](CCC(=O)N[C@@H](CCC(=O)N[C@@H](CCC(=O)N[C@@H](CCC(=O)NCCCC[C@H](NC(=O)[C@@H](NC(=O)[C@H](Cc1ccccc1)NC(=O)[C@H](CC(=O)O)NC(=O)[C@H](CCC(N)=O)NC(=O)[C@H](C)NC(=O)[C@H](CCCNC(=N)N)NC(=O)[C@H](CCCNC(=N)N)NC(=O)[C@@H](NC(=O)[C@H](CC(=O)O)NC(=O)[C@H](CC(C)C)NC(=O)[C@H](Cc1ccc(O)cc1)NC(=O)[C@H](CCCNC(=N)N)NC(=O)[C@H](CO)NC(=O)[C@H](Cc1ccc(O)cc1)NC(=O)[C@H](CC(=O)O)NC(=O)[C@H](CO)NC(=O)[C@@H](NC(=O)[C@H](Cc1ccccc1)NC(=O)[C@@H](NC(=O)CNC(=O)[C@H](CCC(N)=O)NC(=O)[C@H](CO)NC(=O)[C@@H](N)Cc1c[nH]cn1)[C@@H](C)O)[C@@H](C)O)[C@@H](C)O)C(C)C)C(=O)N[C@@H](Cc1c[nH]c2ccccc12)C(=O)N[C@@H](CC(C)C)C(=O)N[C@@H](CC(C)C)C(=O)N[C@@H](CO)C(=O)N[C@H](C(=O)N1CCC[C@H]1C(=O)O)[C@@H](C)O)C(=O)O)C(=O)O)C(=O)O)C(=O)O` [Example 26] (H-HSQGTFTSDYSRYLDTRRAQDFVK([γGlu-γGlu-γGlu-γGlu-Ac])WLLSTP-OH), the figure is 0.012 nM.
